These results are taken from US20170165282A1, “USE OF BETA-NICOTINAMIDE MONONUCLEOTIDE IN PREPARATION OF DRUGS FOR PREVENTING AND TREATING ARTERIOSCLEROSIS AND CARDIO-CEREBROVASCULAR DISEASES, AND DRUGS CONTAINING THE SAME” (BONTAC BIO-ENGINEERING (SHENZHEN) CO., LTD, priority 2015, published 2017).

Assay [1] deals with arteriosclerosis (lesion of the aorta) in guinea pigs fed on high-fat diet. As to the kind of experiment: Guinea pig high-fat diet arteriosclerosis model, lesion area of aorta (Sudan IV staining). The assay is classed as in vivo. How it is done: 80 SPF healthy guinea pigs (female:male 1:1) having a body weight of 250-300 g, were assigned to 8 groups at random, each group having 10 animals. The groups include:
(1) a normal control group, fed on basal diet, and allowed to free access to water during experiment;
(2) a high fat control group, fed on high-fat diet, and allowed to free access to water during experiment;
(3) a high fat prevention group, fed on high-fat diet, dosed with 10 mg NMN/kg body weight by gavage every day, and allowed to free access to water during experiment;
(4) a low-dose NMN group, fed on high-fat diet, dosed with 0.1 mg NMN/kg body weight by gavage every day from week 7, and allowed to free access to water during experiment;
(5) a medium-dose NMN group, fed on high-fat diet, dosed with 10 mg NMN/kg body weight by gavage every day from week 7, and allowed to free access to water during experiment;
(6) a high-dose NMN group, fed on high-fat diet, dosed with 20 mg NMN/kg body weight by gavage every day from week 7, and allowed to free access to water during experiment;
(7) NMN+NR gavage group: fed on high-fat diet, dosed with 10 mg NMN/kg body weight and 1 mg NR/kg body weight by gavage every day from week 7, and allowed to free access to water during experiment.
(8) NMN+NR injection group: fed on high-fat diet, dosed with 10 mg NMN/kg body weight and 5 mg NR/kg body weight by intramuscular injection every day from week 7, and allowed to free access to water during experiment.
The formulation of the high-fat diet includes 83% basal diet, 2% cholesterol, and 15% lard oil.
At the end of week 10, all the experimental animals was fasted (allowed to access to water) for 12 hrs and then sacrificed. The aorta was isolated, dissected longitudinally along the midline of the anterior wall, and stained with Sudan IV. […] The lesion area pathologically measured and the total endangium area were quantified, and the degree of arteriosclerosis was expressed by percentages of the lesion area relative to the total endangium area of the aorta.
Statistical analysis: All the experimental data is analyzed by SPSS13.0 Statistics software. The measurement data is expressed as x±s, and t test is applied to check the statistical significance. Where P<0.05, there is statistical significance.

Assay [2] deals with patients having cardio-cerebrovascular diseases resulting from arteriosclerosis. As to the kind of experiment: Clinical trial in patients with cardio-cerebrovascular diseases resulting from arteriosclerosis. The assay is classed as in vivo, human. The settings on record: for Total effective rate: excluding the withdrawing patients. From the text:
300 patients (male:female 1:1, aged 35-78 years and 57.5 years on average, and having a course of disease of the shortest 1.5 years, the longest 7 years, and 4.6 years on average) diagnosed as having cardio-cerebrovascular diseases resulting from arteriosclerosis were selected at random as subjects for clinical observation. The patients were assigned to a group A, a group B, and a group C at random, each group having 100 patients.
Group A: The patients were orally administered with NMN at a dosage of 10 mg/kg body weight before or after meals every day, and the diet was controlled as desired.
Group B: The patients were orally administered with NMN at a dosage of 10 mg/kg body weight and with NR at a dosage of 2 mg/kg body weight before or after meals every day, and the diet was controlled as desired.
Group C: The patients were intramusculary injected with NMN at a dosage of 10 mg/kg body weight and with NR at a dosage of 3 mg/kg body weight before or after meals every day, and the diet was controlled as desired.
(1) Obvious effectiveness: The health is built up, the body is powerful, the blood lipid and blood pressure drop to normal levels, the palpitation, chest pain, chest tightness, headache, dizziness, decreased vision, decreased memory, insomnia and dreamful sleep, and other clinical symptoms are obvious alleviated.
(2) Effectiveness: The health is built up, the blood lipid and blood pressure drop slightly, the palpitation, chest pain, chest tightness, headache, dizziness, decreased vision, decreased memory, insomnia and dreamful sleep, and other clinical symptoms are alleviated to some extent.
(3) Ineffectiveness: There is no obvious improvement in the clinical symptoms.

Setting [3] is: Group A: oral NMN 10 mg/kg every day, after 1 month.
Setting [4] is: Group A: oral NMN 10 mg/kg every day, after 1 month, 100 patients.

As for `NC(=O)c1ccc[n+]([C@@H]2O[C@H](COP(=O)([O-])O)[C@@H](O)[C@H]2O)c1` [NMN, β-nicotinamide mononucleotide], the “Rate of lesion area of aorta (%)” value is recorded as 13 ± 2% in assay [1] (high fat prevention group: high-fat diet, 10 mg NMN/kg body weight by gavage every day, end of week 10, x±s); 18 ± 4% in assay [1] (high-dose: high-fat diet, 20 mg NMN/kg by gavage every day from week 7, end of week 10, x±s); 58 ± 5% in assay [1] (low-dose: high-fat diet, 0.1 mg NMN/kg by gavage every day from week 7, end of week 10, x±s); 27 ± 3% in assay [1] (medium-dose: high-fat diet, 10 mg NMN/kg by gavage every day from week 7, end of week 10, x±s). The “Time after administration at which patients with mild disease are cured” value in assay [2] (Group A: oral NMN 10 mg/kg body weight every day) came out at 7 days. The “Patients showing obvious effectiveness” value in assay [2] (setting [3]) was 67 out of 100 patients. In assay [2] (setting [4]), this compound came in with a Patients showing effectiveness of 28 patients. The same compound had a Patients showing ineffectiveness in assay [2] (setting [4]) of 4 patients. Moreover, the Total effective rate in assay [2] (setting [3]) is 96%; in assay [2] (Group A: oral NMN 10 mg/kg every day, after 1 month, listed as β-nicotinamide mononucleotide) it was “up to 96%”.
